Test: Odor detection threshold (ODT)
Details: for ODT: Table 9
Excerpt: Within these defined water-release groups, odorants are then further described based on their experimentally determined odor detection thresholds (ODT) to further characterize the odor impact or olfactive intensity of a citrus and other olfactive types within the herein-described released group of odorants.
Upon their release in headspace, odorants are detected based on their odor detection threshold values. Odor detection thresholds are defined as the lowest concentration of odorants in a selected medium (air or water) to be detected. By including odor values of odorants in the model, one can further improve on the values for predicted performance of once odorants are released from the partition into the air.
Various databases for experimental odor detection threshold values in various partitions such as water and air are available. See Compilation of Odor and Taste Threshold Values Data, American Society for Testing and Materials, F. A. Fazzalari Editor; Booleans Aroma Chemical Information Service (BACIS)).

C=CC(C)(O)CCC=C(C)CC (mixture of isomers) [ETHYL LINALOOL]
ODT: 120 ppb
odt (Table 11, in ppb): 120.00
odt (Table 13, in ppb): 120.00
odt (Table 15): 120 ppb
odt (Table 17): 440 ppb

CC1=CCC(C=CC(C)C(C)O)C1(C)C (stereo in doubt) [EBANOL]
ODT: 54 ppb
odt (Table 11, in ppb): 54.00
odt (Table 13, in ppb): 54.00

CCCCCCCCCCC=O [ALDEHYDE C11]
odt (Table 13): 7.7 ppb

CCCCCCCCCCCC=O [ALDEHYDE C12 (DODECANAL), DODECANAL]
odt (Table 15): 17 ppb
odt (Table 17): 17 ppb

CCCCCCCC=O [ALDEHYDE C 8 (OCTANAL), OCTANAL]
odt (Table 15): 4.8 ppb
odt (Table 17): 4.5 ppb

CCCCCCCCCC=O [ALDEHYDE C 10 (DECANAL), DECANAL]
odt (Table 15): 8.7 ppb
odt (Table 17): 6.7 ppb

C=CCOC(=O)CCC1CCCCC1 [ALLYL CYCLOHXYL PROPIONATE, ALLYL CYCLOHEXYL PROPIONATE]
ODT: 81 ppb
odt (Table 11, in ppb): 81.00
odt (Table 13, in ppb): 61.00

CCOC(=O)CC1(C)OCCO1 [APPLINAL]
ODT: 55 ppb
odt (Table 11, in ppb): 55.00
odt (Table 13, in ppb): 55.00

CCCCC/C=C\CCC=O [CIS 4 DECENAL]
odt (Table 15): 3.1 ppb
odt (Table 17): 3.1 ppb

CC/C=C\CCOC(C)=O [CIS-3-HEXENYL ACETATE]
ODT: 170 ppb
odt (Table 11, in ppb): 170.00
odt (Table 13, in ppb): 170.00
odt (Table 15): 170 ppb
odt (Table 17): 170 ppb

CC/C=C\CCOC(=O)c1ccccc1O [CIS-3-HEXENYL SALICYLATE]
ODT: 1.9 ppb
odt (Table 11): 1.9 ppb
odt (Table 13): 1.8 ppb
odt (Table 15): 1.9 ppb
odt (Table 17): 1.9 ppb

CC(C)=CCCC(C)=CC=O [CITRAL]
odt (Table 11, in ppb): 12.00
odt (Table 13, in ppb): 12.00

CC(C)=CCCC(C)CC=O (stereo not shown) [CITRONELLAL]
odt (Table 11, in ppb): 33.00
odt (Table 13, in ppb): 33.00
odt (Table 15): 33 ppb
odt (Table 17): 33 ppb

CC(C)=CCCC(C)CCO (stereo not shown) [CITRONELLOL]
odt (Table 11, in ppb): 29.00
odt (Table 13, in ppb): 29.00

CC(C)=CCCC(C)CC#N (stereo not shown) [CITRONELLYL NITRILE]
ODT: 71 ppb
odt (Table 11, in ppb): 71.00
odt (Table 13, in ppb): 71.00
odt (Table 15): 71 ppb
odt (Table 17): 71 ppb

C=CC(C)CCCC(C)(C)O (stereo not shown) [DIHYDROMYRCENOL]
ODT: 810 ppb
odt (Table 11, in ppb): 819.00
odt (Table 13, in ppb): 810.00
odt (Table 15): 810 ppb
odt (Table 17): 810 ppb

CCOC(=O)CC(C)=O [ETHYL ACETOACETATE]
ODT: 54 ppb
odt (Table 11, in ppb): 55.00
odt (Table 13, in ppb): 55.00

CCOC(=O)C(C)CC (stereo not shown) [Ethyl 2-methylbutyrate]
ODT: 20 ppb
odt (Table 11, in ppb): 20.00
odt (Table 13, in ppb): 20.00

CCC(C)C(=O)N(C)c1ccccc1 (stereo not shown) [GARDAMIDE]
ODT: 24 ppb
odt (Table 11, in ppb): 24.00
odt (Table 13, in ppb): 24.00
odt (Table 15): 24 ppb
odt (Table 17): 24 ppb

CCCCCCOC(C)=O [HEXYL ACETATE]
ODT: 950 ppb
odt (Table 11, in ppb): 550.00
odt (Table 13, in ppb): 950.00

CCCCCCCCCCCC#N [LAURONITRILE]
odt (Table 13): 6.7 ppb

CC1=CC(C)C(C=O)CC1 (stereo not shown) [LIGUSTRAL]
odt (Table 11, in ppb): 110.00
odt (Table 13, in ppb): 110.00
odt (Table 15): 110 ppb
odt (Table 17): 110 ppb

C=CC(C)(O)CCC=C(C)C (stereo not shown) [LINALOOL, linalool]
odt (Table 15): 20 ppb
odt (Table 17): 20 ppb

CCCCCCCCCC=CC=O [MANDARIN ALDEHYDE]
odt (Table 13): 1.5 ppb

CC(CC=O)CCc1ccccc1 (stereo not shown) [MEFRANAL]
ODT: 17 ppb
odt (Table 11, in ppb): 17.00
odt (Table 13, in ppb): 17.00
odt (Table 15): 17 ppb
odt (Table 17): 17 ppb

CC(C)=CCCC(C)C=O (stereo not shown) [MELONAL]
odt (Table 15): 1.5 ppb
odt (Table 17): 1.5 ppb

CCCCCC1C(=O)CCC1CC(=O)OC (stereo not shown) [METHYL DIHYDRO JASMONATE]
ODT: 0.23 ppb
odt (Table 11): 0.23 ppb
odt (Table 13): 0.23 ppb

CCCCCCC#CC(=O)OC [METHYL OCTINE CARBONATE]
odt (Table 15): 9.7 ppb
odt (Table 17): 8.7 ppb

CCC(CC)C(=O)N(C)c1cccc(C)c1 [PARADISAMIDE]
odt (Table 13): 0.8 ppb
odt (Table 15): 0.6 ppb
odt (Table 17): 0.6 ppb

CC1CC(C)(c2ccccc2)CO1 (stereo not shown) [RHUBAFURAN]
odt (Table 11, in ppb): 440.00
odt (Table 13, in ppb): 440.00
odt (Table 15): 440 ppb
odt (Table 17): 440 ppb

CC(C)CC1CCCC(C)(O)C1 (stereo not shown) [ROSSITOL]
ODT: 440 ppb
odt (Table 11, in ppb): 440.00
odt (Table 13, in ppb): 440.00
odt (Table 15): 440 ppb
odt (Table 17): 120 ppb

CC(=O)OC(C)c1ccccc1 (stereo not shown) [STRALLYL ACETATE, STYRALLYL ACETATE]
odt (Table 15): 110 ppb
odt (Table 17): 110 ppb

CCC(C)(O)CCCC(C)C (stereo not shown) [TETRAHYDROLINALOOL]
ODT: 380 ppb
odt (Table 11, in ppb): 380.00
odt (Table 13, in ppb): 380.00

CC/C=C\CC/C=C/C=O [TRANS 2 CIS 6 NONADENAL, TRANS 2 CIS 6 NONADIENAL]
odt (Table 15): 0.2 ppb
odt (Table 17): 0.2 ppb

CC/C=C\CC/C=C/CO [TRANS 2 CIS 6 NONADENOL, TRANS 2 CIS 6 NONADIENOL]
odt (Table 15): 1.5 ppb
odt (Table 17): 1.5 ppb

CCCCCCCCCCC=CC#N [TRIDECEN 2 NITRILE]
odt (Table 15): 8.7 ppb
odt (Table 17): 6.7 ppb

CCC=C(C)C(O)CCCCC (stereo not shown) [UNDECAVERTOL, 4-Methyl-3-decen-5-ol]
odt (Table 15): 28 ppb
odt (Table 17): 28 ppb

C=C(C)[C@H]1CC=C(C)CC1 [d-LIMONINE, d-1-Methyl-4-isopropenyl-1-cyclohexene]
ODT: 430 ppb
odt (Table 11, in ppb): 430.00
odt (Table 13, in ppb): 430.00
odt (Table 15): 430 ppb
odt (Table 17): 430 ppb

Source: patent US20100087351A1, “Perfumes for Linear Citrus Release in Rinse-Off Systems” (Quest International Services B.V., priority 2007, published 2010)
